This is an account of results in publication PMC7760477 (Nutrients, 2020).

Entries after “also recorded” stand apart in the source; their conditions may differ.

For orientation: Tmax means the time at which the peak concentration occurs. By AUC(0-t) is commonly meant exposure summed from dosing to a finite time, without extrapolation to infinity.

Details of data set [1]: method as in Pietrzik et al., 2000 unpublished data. The note with it: single equimolar dose; 23 women; mean (SD); ref Pietrzik et al., 2000 unpublished data; cited from earlier work.
The nature of the next data set: clinical. The note with it: both, human, in vivo.
The nature of data set [2]: Indirect comparison of AUCs of plasma (6S)-5-Methyl-THF between the 2019 and 2009 studies. To be noted: female, human, in vivo, 451 µg.
Description: (§1) We used individual data from the two studies to calculate the AUC0–8 h of plasma (6S)-5-Methyl-THF. […] We extrapolated plasma concentrations of (6S)-5-Methyl-THF for the missing time points in the corresponding studies by calculating the mean of the concentrations at the two neighboring time points (=before and after the missing concentrations). […] The incremental AUCs of plasma (6S)-5-Methyl-THF were calculated and were expressed as nmol/L*h.
Data set [3] in a line: 2009 pharmacokinetic study (Prinz-Langenohl et al.): plasma (6S)-5-Methyl-THF by LC-MS-MS after a single oral dose in women. The note with it: AUC0-8h of plasma (6S)-5-Methyl-THF; individual ratios; mean (SD).
Description: Plasma concentrations of (6S)-5-Methyl-THF were selectively measured in both studies.
as §1
The data analyses were conducted using individual data from the 24 subjects in the present pharmacokinetic study and 21 women (3 women were excluded due to implausible results) from the study of Prinz-Langenohl et al. [13].
For data set [4] the following is noted: rated as unrelated to the study product.
Description: On the kinetic days, a permanent venous catheter was inserted in the morning. Blood (8 mL) was collected under fasting conditions (at t0) into EDTA-K^+-containing tubes. […] The study product (1 capsule) was administered with 150 mL water by the study personnel to ensure compliance. […] On each kinetic day, 9 blood samples were collected between t0 and t8 h (8 mL each). The diary records including documentation of adverse events were returned during the last blood collection session after 8 h of the intake.
Data set [5] can be described thus: Pharmacokinetic study (present, 2019): plasma (6S)-5-Methyl-THF by UPLC-MS/MS after a single oral dose.
Description: Both folate compounds were provided in odorless gelatin capsules of identical appearance (Apotheke Roter Ochsen AG, Schaffhausen, Switzerland). The label carried a random ID number and the kinetic day 1 and day 2.
The randomization was carried out on kinetic day 1 by means of consecutive numbering and was stratified by sex. On the kinetic days, a permanent venous catheter was inserted in the morning. Blood (8 mL) was collected under fasting conditions (at t0) into EDTA-K^+-containing tubes. […] The study product (1 capsule) was administered with 150 mL water by the study personnel to ensure compliance. A folate-free protein drink (Scandishake® Mix, Nutricia GmbH, Erlangen, Germany) was dissolved in water and served at 1 h, 3 h and 6 h after the product intake. The drink provided 430 kcal per serving. On each kinetic day, 9 blood samples were collected between t0 and t8 h (8 mL each). […]
Plasma total folate levels were measured on the kinetic days by using Cobas autoanalyser (Elecsys®, Roche, Mannheim, Germany) at the Department of Clinical Chemistry, Saarland University Hospital, Germany. […] All plasma samples collected from the same subject (18 samples on both study visits) were prepared and measured in the same run. […]
Incremental areas under the observed concentration-time curve above baseline were calculated applying the trapezoidal rule and were expressed as nmol/L*h.
Data set [6] can be described thus: Pharmacokinetic study (present, 2019): plasma unmetabolized folic acid by UPLC-MS/MS after a single oral dose. The note with it: over 8 h; limit of detection 0.20 nmol/L.
Description: (§2) The label carried a random ID number and the kinetic day 1 and day 2.
(§3) The randomization was carried out on kinetic day 1 by means of consecutive numbering and was stratified by sex. On the kinetic days, a permanent venous catheter was inserted in the morning. Blood (8 mL) was collected under fasting conditions (at t0) into EDTA-K^+-containing tubes. […] The study product (1 capsule) was administered with 150 mL water by the study personnel to ensure compliance. A folate-free protein drink (Scandishake® Mix, Nutricia GmbH, Erlangen, Germany) was dissolved in water and served at 1 h, 3 h and 6 h after the product intake. The drink provided 430 kcal per serving. On each kinetic day, 9 blood samples were collected between t0 and t8 h (8 mL each). The diary records including documentation of adverse events were returned during the last blood collection session after 8 h of the intake. After a washout period of 2 weeks (only two participants returned at 11 and 17 days) and during the second study visit (kinetic day 2), the other study compound was administered following exactly the same procedure.
(§4) Plasma total folate levels were measured on the kinetic days by using Cobas autoanalyser (Elecsys®, Roche, Mannheim, Germany) at the Department of Clinical Chemistry, Saarland University Hospital, Germany. The CV% of the total folate assay was <6%. All plasma samples collected from the same subject (18 samples on both study visits) were prepared and measured in the same run. All blood samples were primary aliquots frozen at −70 °C for no longer than 3 months.

Description for clinical: as §2, §3, §4

Take `Nc1nc2ncc(CNc3ccc(C(=O)N[C@@H](CCC(=O)O)C(=O)O)cc3)nc2c(=O)[nH]1` [folic acid, pteroylmonoglutamic acid]: the “Incremental AUC0–8 h of plasma total folate” value in data set [1] is on record as 50.3 (20.1) nmol/L*h. For the same molecule, in the data set “clinical”, the concentration at 0.5 h was 2.5 nM and the concentration at 1 h is 4.7 nM. Further, the Tmax in “clinical” (po) lay within 30 to 60 min.

`CN1c2c(nc(N)[nH]c2=O)NC[C@@H]1CNc1ccc(C(=O)N[C@@H](CCC(=O)O)C(=O)O)cc1` [(6S)-5-Methyl-THF-Ca, (6S)-5-Methyltetrahydrofolic acid]: the “Incremental AUC0–8 h of plasma total folate” value in data set [1] is 85.0 (21.9) nmol/L*h. In data set [2], the area under the curve AUC(0-t) was determined as 136 nM·h. In addition, the “AUC Ratio: AUCs (6S)-5-Methyl-THF-Ca/ folic acid 2009” value in data set [3] was 2.29 (0.76).

Turning to `CN1c2c(nc(N)[nH]c2=O)NC[C@@H]1CNc1ccc(C(=O)N[C@@H](CCC(=O)O)C(=O)O)cc1` [(6S)-5-Methyl-THF-Na, (6S)-5-Methyltetrahydrofolic acid], the “Headaches reported on kinetic day 1 after intake” value in data set [4] was “Three subjects reported headaches”. Also, the “AUC Ratio: AUCs of (6S)-5-Methyl-THF-Na/ AUC folic acid 2019” value in data set [5] (AUC0-8h of plasma (6S)-5-Methyl-THF, individual ratios, mean (SD)) is 2.52 (1.02). For the same molecule, in data set [5] (difference of Tmax versus folic acid), the “Maximum concentrations of plasma (6S)-5-Methyl-THF reached earlier compared to folic acid” value is reported as 60 min. Further, the “Plasma unmetabolized folic acid levels after intake” value in data set [6] is given as “below the limit of detection; also recorded: remained undetectable”.
